The values that follow come from EP4342467A1, “KU INHIBITORS FOR USE IN TUMOR THERAPY” (Masarykova Univerzita, priority 2022, dated 2024).

In test [1] the test system is HCT116 cells. Put plainly: cell proliferation, ATPlite assay. Format: cell-based. As to conditions: Homo sapiens, HCT-116, 120 h, read-out: Inhibition of cell proliferation IC50. As for the experimental part:
HCT116, U2OS and HeLa cells were grown in McCoy's 5a medium supplemented with 10% Fetal Bovine Serum, 2 mM L-Glutamine and Penicilin/Streptomycin 200 U/l each in the presence of Compound 1-9. After growth at 37 °C, 5% CO2 for 3 days, monolayer of cells was detached using TrypLE Express (Gibco), cells were counted using 0.4% trypan blue stain and hemocytometer. […] Number of viable cells was estimated using ATPlite kit (Perkin Elmer).

The target of the next test is Ku complex (Homo sapiens, UniProt P12956+P13010). In words: microwell protein induced fluorescent enhancement assay (mwPIFE) of Ku-DNA binding. To be noted: for IC50: estimated from the 0.5 to 8 µM concentration range, read-out: Inhibition of Ku-DNA binding IC50; for remaining activity at 8 µM: read-out: % binding at 8 µM (100% = 0.5% DMSO). As for the experimental part:
A rapid method for detecting protein-nucleic acid interactions by protein induced fluorescence enhancement. Sci Rep 6, 39653. mwPIFE is based on enhanced fluorescence of cyanine fluorophores attached to nucleic acid probes upon protein binding. […] The probe was immobilized in 96 well plates through biotin (Btn) attached to one end of DNA and incubated with purified Ku complex (0.5 pmol) in 50 µl of binding buffer (10 mM calcium acetate, 60 mM potassium acetate, 20 mM TRISacetate pH 7.9, 100 mg BSA/1). Ku-DNA binding was calculated from altered fluorescence measured by a fluorescence plate reader (Valuchova et al., 2016). […]

Test [2] concerns HCT116 cells. Put plainly: C-circle assay (extrachromosomal circular telomeric DNA). Format: cell-based, human. As to conditions: C-circle assay in HCT116 cells treated for 3 to 7 days. As for the experimental part: HCT116 cell were incubated for 3, 5 or 7 days in McCoy's 5a medium with 10% Fetal Bovine Serum, 2 mM L-Glutamine and Penicilin/Streptomycin 200 U/l each and supplemented with Compound 1-9. C-circle assay that utilizes rolling circle amplification of circular DNA by φ29 polymerase was performed as described in Henson, J.D., Lau, L.M., Koch, S., Martin La Rotta, N., Dagg, R.A., and Reddel, R.R. (2017). The C-Circle Assay for alternative-lengthening-of-telomeres activity. Methods 114, 74-84. Amplified circular telomeric DNA was detected by dot blot hybridization with P^32-labeled telomeric DNA oligonucleotide (5'-[…]-3' (SEQ ID NO: 6)) (Figure 4).

The subject of a further test is U2OS. Put plainly: combination with BIBR1532, relative growth by ATPlite. To be noted: 10 µM BIBR1532, 0.25 µM iKU-1 or their combination, 4 days. Format: cell-based, human. For orientation: Cellular ATP, detected with luciferase, serves as a proxy for viable cell number.
For the next test, the system named is HCT116. The description is as above. Type of test: cell-based, human. As to conditions: HCT116; 10 µM BIBR1532, 0.25 µM iKU-1 or their combination; 4 days. As for the experimental part: 10,000 HCT116 cells were seeded in 100 µl of McCoy's 5a medium supplemented with 10% Fetal Bovine Serum, 2 mM L-Glutamine and Penicilin/Streptomycin 200 U/l for 1 day in 96well plate and treated with 10 µM BIBR1532, 0.25 µM of iKU-1 or their combination for 4 days. Number of viable cells was measured by ATPlite kit (Perkin Elmer) and normalized to the treatment with 0.5% DMSO. The results presented in Table 2 show a synergistic effect of iKU-1 and BIBR1532 on the growth of HCT116 tumor cell line. Values in the table indicate relative growth assessed by ATPlite kit compared to the control sample treated with 0.5% DMSO after 4 days of treatment.

The test system of the next test is HeLa. The description is as above. As to conditions: 10 µM BIBR1532, 0.25 µM iKU-1 or their combination, 4 days. Type of test: cell-based, human.
For a further test, the system named is A2780. Put plainly: growth of A2780 cells by ATPlite, alone and in combination with Bleomycin. Type of test: cell-based, human. As to conditions: A2780; 0.025 µg/ml Bleomycin, 0.5 µM iKU-1 or their combination; 7 days. As for the experimental part:
2,000 A2780 cells were seeded in 100 µl of RPMI 1640 medium with 300 mg/l L-Glutamine and 10% Fetal Bovine Serum for 1 day in 96well plate and treated by 0.025 µg/ml of Bleomycin, 0.5 µM of iKu-1 or their combination for 7 days. Number of viable cells was measured by ATPlite kit (Perkin Elmer) and normalized to the treatment with 0.5% DMSO.
Values in the table indicate relative growth assessed by ATPlite kit compared to the control sample treated with 0.5% DMSO after 7 days of treatment.
2,000 SKOV3 and A2780 cells were seeded in 100 µl of McCoy's 5a or RPMI 1640 media, respectively, for one day and then incubated with iKU-1 for 7 days. Number of viable cells was measured by ATPlite kit (Perkin Elmer) and normalized to the treatment with 0.5% DMSO.

For test [3] the following is noted: literature (Weterings et al. 2016); cited from earlier work.
[4] abbreviates: ATPlite assay in HCT116 cells treated for 5 days.
[5] abbreviates: mwPIFE, 8 µM inhibitor compared to 0.5% DMSO.

Read-outs that look alike come from different tables or passages of the source.

Chain of Ku complex (P12956 whole entry): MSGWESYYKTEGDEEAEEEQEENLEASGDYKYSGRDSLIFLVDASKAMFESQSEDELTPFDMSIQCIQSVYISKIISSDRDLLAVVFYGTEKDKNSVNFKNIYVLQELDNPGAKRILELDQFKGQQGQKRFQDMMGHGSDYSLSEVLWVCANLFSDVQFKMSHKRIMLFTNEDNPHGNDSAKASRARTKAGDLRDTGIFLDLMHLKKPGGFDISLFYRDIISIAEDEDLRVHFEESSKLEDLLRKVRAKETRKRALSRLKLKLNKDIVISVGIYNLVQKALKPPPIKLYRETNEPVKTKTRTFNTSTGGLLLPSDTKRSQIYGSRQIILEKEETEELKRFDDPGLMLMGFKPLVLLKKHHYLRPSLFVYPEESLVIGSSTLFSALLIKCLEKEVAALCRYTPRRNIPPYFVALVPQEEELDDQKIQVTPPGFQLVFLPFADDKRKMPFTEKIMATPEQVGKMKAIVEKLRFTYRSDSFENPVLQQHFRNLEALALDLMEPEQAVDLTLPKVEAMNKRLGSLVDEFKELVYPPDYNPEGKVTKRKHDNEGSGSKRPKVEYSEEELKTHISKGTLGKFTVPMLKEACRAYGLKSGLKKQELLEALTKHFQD
Chain of Ku complex (P13010 whole entry): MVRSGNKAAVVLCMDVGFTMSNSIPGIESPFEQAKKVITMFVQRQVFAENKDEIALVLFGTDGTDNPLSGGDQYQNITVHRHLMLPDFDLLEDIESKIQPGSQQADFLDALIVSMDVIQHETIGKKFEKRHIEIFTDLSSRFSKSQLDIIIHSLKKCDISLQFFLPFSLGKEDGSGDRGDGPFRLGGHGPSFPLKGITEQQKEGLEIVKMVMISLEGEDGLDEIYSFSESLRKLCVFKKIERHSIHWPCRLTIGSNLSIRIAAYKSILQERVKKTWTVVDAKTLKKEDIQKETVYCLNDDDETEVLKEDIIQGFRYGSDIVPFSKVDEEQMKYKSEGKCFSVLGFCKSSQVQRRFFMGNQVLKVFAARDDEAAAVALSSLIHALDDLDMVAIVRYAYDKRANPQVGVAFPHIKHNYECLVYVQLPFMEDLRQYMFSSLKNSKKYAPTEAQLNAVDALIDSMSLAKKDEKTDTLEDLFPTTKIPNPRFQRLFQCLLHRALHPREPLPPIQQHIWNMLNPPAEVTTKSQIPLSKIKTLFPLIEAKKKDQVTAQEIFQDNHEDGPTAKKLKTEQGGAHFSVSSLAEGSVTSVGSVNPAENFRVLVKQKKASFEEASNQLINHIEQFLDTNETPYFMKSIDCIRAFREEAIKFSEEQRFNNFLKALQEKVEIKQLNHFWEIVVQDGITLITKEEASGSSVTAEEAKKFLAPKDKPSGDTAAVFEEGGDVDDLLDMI

Turning to `O=C(Nc1nc(-c2cccnc2)cs1)c1cncc(Br)c1` [Compound 7], the figures for the IC50 in the test on HCT116 cells [1] and on Ku complex (mwPIFE) were above 20 µM and above 8 µM, respectively. In addition, the remaining activity at 8 µM on Ku complex came out at 55%. For the same molecule, in the test on HCT116 cells [2], the “Concentration inducing c-circle formation” value is on record as 50 µM.

Consider `C/C(=C\C(=O)Nc1ccccc1C(=O)O)c1ccc2ccccc2c1` [BIBR1532, reference compound], for which the “relative growth assessed by ATPlite kit compared to the control sample treated with 0.5% DMSO” value with U2OS came to 0.88; in the test on HCT116, 0.88; in the test with HeLa, 0.92.

In the case of `O=C(Nc1nc(-c2ccccn2)cs1)c1ccc(NC2CC2)nc1` [Compound 4], the IC50 with HCT116 cells [1] was 8 µM; on Ku complex (mwPIFE), 7 µM. At Ku complex, the remaining activity at 8 µM turned out to be 47%. For the same molecule, the “Concentration inducing c-circle formation” value with HCT116 cells [2] was 10 µM.

On to `O=C(Nc1nc(-c2ccccc2)cs1)c1cncc(Br)c1` [Compound 8], for which the IC50 was above 20 µM with HCT116 cells [1] and above 8 µM at Ku complex (mwPIFE). Also, the remaining activity at 8 µM at Ku complex was 71%. In the test with HCT116 cells [2], the “Concentration inducing c-circle formation” value amounted to 50 µM.

As to `Cc1ccc(C(=O)Nc2nc(-c3ccccc3)cs2)cc1` [Compound 9], the IC50 in the test with HCT116 cells [1] (setting [4]) was 9 µM; on Ku complex (mwPIFE), above 8 µM. On Ku complex (setting [5]), the remaining activity at 8 µM was found to be 99%. In addition, the “Concentration inducing c-circle formation” value with HCT116 cells [2] amounted to 20 µM.

Regarding Bleomycin [reference compound], the “relative growth assessed by ATPlite kit compared to the control sample treated with 0.5% DMSO” value in the test on A2780 worked out at 1.00.

As to `O=C(Nc1nc(-c2ccccn2)cs1)c1cccc(Br)c1` [Compound 3], the IC50 in the test with HCT116 cells [1] (setting [4]) is below 5 µM. The remaining activity at 8 µM at Ku complex (setting [5]) was 76%.

For `O=C(Nc1nc(-c2ccccn2)cs1)c1cccnc1` [Compound 2], the IC50 with HCT116 cells [1] (setting [4]) is below 5 µM. The remaining activity at 8 µM on Ku complex (setting [5]) came out at 97%. For the same molecule, the “Concentration inducing c-circle formation” value in the test on HCT116 cells [2] amounted to 5 µM.

Take `CC(=O)NCCc1ccc(-c2csc(NC(=O)c3cncc(Br)c3)n2)cc1` [Compound 5]: the IC50 with HCT116 cells [1] is below 5 µM; on Ku complex (mwPIFE), above 8 µM. Further, the remaining activity at 8 µM on Ku complex came to 75%.

`CC(=O)Nc1ccc(-c2csc(NC(=O)c3cncc(Br)c3)n2)cc1` [Compound 6]: the IC50 was 20 µM in the test with HCT116 cells [1] and above 8 µM at Ku complex (mwPIFE). For the same molecule, the remaining activity at 8 µM at Ku complex was 55%.

For the molecule `COc1ccc(CCNc2ncc3c(=O)n(-c4cccc(F)c4)c(=O)[nH]c3n2)cc1OC` [STL127705], the “concentration conferring enhanced sensitivity to irradiation” value in test [3] was 20 to 30 µM.
